Source: the kinase profiling compilation of Christmann-Franck et al. (2016)

What was measured:
Experiment in all cases: radiometric filter-binding kinase assay, Kinase HotSpot
Details in all cases: compound 0.5 µM; ATP 10 µM
BRSK2 (human) = BRSK2 (human) (UniProt Q8IWQ3)
PKN2 (human) = PKN2 (human) (UniProt Q16513)
HCK (human) = HCK (human) (UniProt P08631)
BLK (human) = BLK (human) (UniProt P51451)
RPS6KA6 KD1 KD2 (human) = RPS6KA6 KD1 KD2 (human) (UniProt Q9UK32)
RPS6KA4 KD2 (human) = RPS6KA4 KD2 (human) (UniProt O75676)
WNK2 (human) = WNK2 (human) (UniProt Q9Y3S1)
CSK (human) = CSK (human) (UniProt P41240)
DYRK1A (human) = DYRK1A (human) (UniProt Q13627)
CLK2 (human) = CLK2 (human) (UniProt P49760)
MYLK (human) = MYLK (human) (UniProt Q15746)
GRK6 (human) = GRK6 (human) (UniProt P43250)
SIK2 (human) = SIK2 (human) (UniProt Q9H0K1)
NEK4 (human) = NEK4 (human) (UniProt P51957)
PRKCA (human) = PRKCA (human) (UniProt P17252)
CAMKK2 (human) = CAMKK2 (human) (UniProt Q96RR4)
FGFR3 (human) = FGFR3 (human) (UniProt P22607)
STK39 (human) = STK39 (human) (UniProt Q9UEW8)
CSNK2A1 (human) = CSNK2A1 (human) (UniProt P68400)
DAPK2 (human) = DAPK2 (human) (UniProt Q9UIK4)
CDK6 CCND3 (human) = CDK6 CCND3 (human) (UniProt P30281+Q00534)
DDR2 (human) = DDR2 (human) (UniProt Q16832)
FGFR2 (human) = FGFR2 (human) (UniProt P21802)
EPHA3 (human) = EPHA3 (human) (UniProt P29320)
GSK3A (human) = GSK3A (human) (UniProt P49840)
MAP3K7 TAB1 (human) = MAP3K7 TAB1 (human) (UniProt O43318+Q15750)
LTK (human) = LTK (human) (UniProt P29376)
ERBB4 (human) = ERBB4 (human) (UniProt Q15303)
JAK2 JH1 JH2 (human) = JAK2 JH1 JH2 (human) (UniProt O60674)
PRKX (human) = PRKX (human) (UniProt P51817)
TTK (human) = TTK (human) (UniProt P33981)
STK16 (human) = STK16 (human) (UniProt O75716)
SRPK1 (human) = SRPK1 (human) (UniProt Q96SB4)
PLK2 (human) = PLK2 (human) (UniProt Q9NYY3)
MARK2 (human) = MARK2 (human) (UniProt Q7KZI7)
MLTK (human) = MLTK (human) (UniProt Q9NYL2)
ALK (human) = ALK (human) (UniProt Q9UM73)
FGFR1 (human) = FGFR1 (human) (UniProt P11362)
PRKACA (human) = PRKACA (human) (UniProt P17612)
IRAK1 (human) = IRAK1 (human) (UniProt P51617)
WNK3 (human) = WNK3 (human) (UniProt Q9BYP7)
ZAP70 (human) = ZAP70 (human) (UniProt P43403)

Chain of BLK (human) (P51451 whole entry, looked up): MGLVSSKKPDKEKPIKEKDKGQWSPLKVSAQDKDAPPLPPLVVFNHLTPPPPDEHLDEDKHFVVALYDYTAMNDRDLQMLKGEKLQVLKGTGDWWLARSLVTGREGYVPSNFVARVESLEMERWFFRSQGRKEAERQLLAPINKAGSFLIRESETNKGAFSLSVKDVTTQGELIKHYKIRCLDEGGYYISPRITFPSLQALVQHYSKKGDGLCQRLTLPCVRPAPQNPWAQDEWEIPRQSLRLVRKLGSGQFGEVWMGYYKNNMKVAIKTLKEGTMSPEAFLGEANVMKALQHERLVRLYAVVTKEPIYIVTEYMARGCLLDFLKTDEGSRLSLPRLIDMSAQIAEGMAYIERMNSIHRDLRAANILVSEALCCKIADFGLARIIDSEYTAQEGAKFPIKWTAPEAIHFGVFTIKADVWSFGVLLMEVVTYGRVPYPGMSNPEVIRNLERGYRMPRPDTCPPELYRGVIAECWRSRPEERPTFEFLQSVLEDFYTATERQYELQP
Chain of EPHA3 (human) (P29320 whole entry, looked up): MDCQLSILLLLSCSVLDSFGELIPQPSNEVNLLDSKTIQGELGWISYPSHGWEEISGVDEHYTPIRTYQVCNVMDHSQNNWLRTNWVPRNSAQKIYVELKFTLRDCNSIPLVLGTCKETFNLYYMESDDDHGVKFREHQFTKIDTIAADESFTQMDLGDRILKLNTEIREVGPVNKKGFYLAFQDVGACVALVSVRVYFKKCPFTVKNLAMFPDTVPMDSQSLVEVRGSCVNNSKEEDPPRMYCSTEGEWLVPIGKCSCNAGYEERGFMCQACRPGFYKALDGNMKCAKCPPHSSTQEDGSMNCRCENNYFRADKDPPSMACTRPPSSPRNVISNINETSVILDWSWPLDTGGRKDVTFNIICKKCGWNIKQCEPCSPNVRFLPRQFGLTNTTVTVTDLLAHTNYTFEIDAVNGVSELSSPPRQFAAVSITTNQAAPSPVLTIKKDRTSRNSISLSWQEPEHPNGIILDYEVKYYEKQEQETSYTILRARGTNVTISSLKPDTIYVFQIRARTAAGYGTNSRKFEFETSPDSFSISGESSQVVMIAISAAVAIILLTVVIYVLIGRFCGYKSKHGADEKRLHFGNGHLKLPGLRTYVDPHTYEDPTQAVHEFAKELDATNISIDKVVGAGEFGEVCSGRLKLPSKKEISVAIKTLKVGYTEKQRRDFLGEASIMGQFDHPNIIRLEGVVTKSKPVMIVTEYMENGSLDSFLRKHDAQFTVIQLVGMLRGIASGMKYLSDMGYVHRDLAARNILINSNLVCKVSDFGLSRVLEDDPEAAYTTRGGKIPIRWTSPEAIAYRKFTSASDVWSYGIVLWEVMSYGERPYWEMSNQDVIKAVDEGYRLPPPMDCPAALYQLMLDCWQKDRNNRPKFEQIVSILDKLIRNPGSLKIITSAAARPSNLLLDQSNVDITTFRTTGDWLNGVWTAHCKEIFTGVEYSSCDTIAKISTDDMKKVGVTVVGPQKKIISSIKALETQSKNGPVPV
Chain of SRPK1 (human) (Q96SB4 whole entry, looked up): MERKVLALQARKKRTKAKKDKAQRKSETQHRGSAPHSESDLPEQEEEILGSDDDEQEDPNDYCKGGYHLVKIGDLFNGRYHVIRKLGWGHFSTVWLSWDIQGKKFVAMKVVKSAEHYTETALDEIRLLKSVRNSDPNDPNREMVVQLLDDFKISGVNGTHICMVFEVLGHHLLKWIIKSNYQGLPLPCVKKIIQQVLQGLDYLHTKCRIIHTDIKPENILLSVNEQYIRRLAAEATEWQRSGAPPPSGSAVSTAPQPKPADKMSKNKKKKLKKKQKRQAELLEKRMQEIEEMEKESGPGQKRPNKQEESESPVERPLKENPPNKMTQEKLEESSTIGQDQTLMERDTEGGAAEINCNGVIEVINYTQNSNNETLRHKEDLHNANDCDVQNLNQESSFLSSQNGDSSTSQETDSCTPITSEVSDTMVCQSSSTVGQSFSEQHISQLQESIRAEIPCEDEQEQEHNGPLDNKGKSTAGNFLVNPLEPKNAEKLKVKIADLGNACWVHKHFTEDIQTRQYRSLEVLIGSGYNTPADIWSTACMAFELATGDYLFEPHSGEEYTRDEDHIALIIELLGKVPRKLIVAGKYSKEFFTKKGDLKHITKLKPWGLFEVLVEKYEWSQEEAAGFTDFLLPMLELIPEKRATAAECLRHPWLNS
Chain of CLK2 (human) (P49760 whole entry, looked up): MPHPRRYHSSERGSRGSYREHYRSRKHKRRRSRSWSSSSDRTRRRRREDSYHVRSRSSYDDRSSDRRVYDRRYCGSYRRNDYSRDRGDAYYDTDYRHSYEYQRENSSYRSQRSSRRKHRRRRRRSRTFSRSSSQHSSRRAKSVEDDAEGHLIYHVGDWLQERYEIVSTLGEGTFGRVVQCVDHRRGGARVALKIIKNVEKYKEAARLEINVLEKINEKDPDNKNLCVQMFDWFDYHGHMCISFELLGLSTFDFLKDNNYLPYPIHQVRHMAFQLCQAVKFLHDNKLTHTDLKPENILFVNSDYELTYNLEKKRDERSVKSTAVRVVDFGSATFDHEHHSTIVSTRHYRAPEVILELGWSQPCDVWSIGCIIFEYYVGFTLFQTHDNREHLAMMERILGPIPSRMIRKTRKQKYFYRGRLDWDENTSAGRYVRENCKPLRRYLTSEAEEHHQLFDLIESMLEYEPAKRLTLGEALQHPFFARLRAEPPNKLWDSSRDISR
Chain of JAK2 JH1 JH2 (human) (O60674 whole entry, looked up): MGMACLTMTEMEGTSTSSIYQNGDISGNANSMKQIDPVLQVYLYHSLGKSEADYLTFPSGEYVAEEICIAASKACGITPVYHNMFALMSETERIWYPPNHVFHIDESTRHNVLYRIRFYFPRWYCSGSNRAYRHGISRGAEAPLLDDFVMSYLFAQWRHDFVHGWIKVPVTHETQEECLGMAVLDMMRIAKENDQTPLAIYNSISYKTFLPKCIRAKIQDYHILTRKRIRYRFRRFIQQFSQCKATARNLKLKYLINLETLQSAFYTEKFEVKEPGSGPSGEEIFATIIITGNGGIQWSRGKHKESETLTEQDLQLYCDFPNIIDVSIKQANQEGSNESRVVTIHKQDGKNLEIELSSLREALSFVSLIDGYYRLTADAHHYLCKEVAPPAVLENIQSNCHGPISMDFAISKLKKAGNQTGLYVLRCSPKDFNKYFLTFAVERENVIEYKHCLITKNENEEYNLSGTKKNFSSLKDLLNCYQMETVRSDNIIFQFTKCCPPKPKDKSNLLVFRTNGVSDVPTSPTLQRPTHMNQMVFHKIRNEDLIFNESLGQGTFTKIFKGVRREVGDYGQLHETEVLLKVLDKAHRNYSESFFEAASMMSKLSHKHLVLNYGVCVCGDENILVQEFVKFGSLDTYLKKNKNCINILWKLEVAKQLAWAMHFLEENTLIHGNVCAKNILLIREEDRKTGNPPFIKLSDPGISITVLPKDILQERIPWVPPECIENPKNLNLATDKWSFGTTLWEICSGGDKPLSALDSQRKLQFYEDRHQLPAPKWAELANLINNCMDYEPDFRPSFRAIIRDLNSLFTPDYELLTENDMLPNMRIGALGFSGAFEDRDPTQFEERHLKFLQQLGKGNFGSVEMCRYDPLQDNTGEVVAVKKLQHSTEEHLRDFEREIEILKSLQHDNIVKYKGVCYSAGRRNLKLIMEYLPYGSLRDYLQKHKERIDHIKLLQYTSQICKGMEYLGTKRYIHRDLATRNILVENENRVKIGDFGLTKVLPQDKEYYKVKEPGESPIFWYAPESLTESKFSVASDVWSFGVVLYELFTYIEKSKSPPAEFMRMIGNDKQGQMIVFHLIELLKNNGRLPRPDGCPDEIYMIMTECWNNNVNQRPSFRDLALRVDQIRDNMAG
Chain of CSK (human) (P41240 whole entry, looked up): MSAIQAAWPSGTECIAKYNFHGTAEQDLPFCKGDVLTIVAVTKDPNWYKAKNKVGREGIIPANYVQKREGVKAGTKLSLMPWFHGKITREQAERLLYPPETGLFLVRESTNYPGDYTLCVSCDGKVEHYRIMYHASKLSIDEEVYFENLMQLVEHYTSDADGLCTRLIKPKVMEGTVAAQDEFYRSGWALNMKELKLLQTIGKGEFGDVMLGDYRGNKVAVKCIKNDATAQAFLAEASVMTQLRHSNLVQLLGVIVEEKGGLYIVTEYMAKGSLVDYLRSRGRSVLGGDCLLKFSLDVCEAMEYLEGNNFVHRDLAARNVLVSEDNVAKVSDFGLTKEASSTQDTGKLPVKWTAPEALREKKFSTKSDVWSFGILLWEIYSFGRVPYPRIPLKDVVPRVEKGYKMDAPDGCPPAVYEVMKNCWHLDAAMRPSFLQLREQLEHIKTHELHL
Chain of HCK (human) (P08631 whole entry, looked up): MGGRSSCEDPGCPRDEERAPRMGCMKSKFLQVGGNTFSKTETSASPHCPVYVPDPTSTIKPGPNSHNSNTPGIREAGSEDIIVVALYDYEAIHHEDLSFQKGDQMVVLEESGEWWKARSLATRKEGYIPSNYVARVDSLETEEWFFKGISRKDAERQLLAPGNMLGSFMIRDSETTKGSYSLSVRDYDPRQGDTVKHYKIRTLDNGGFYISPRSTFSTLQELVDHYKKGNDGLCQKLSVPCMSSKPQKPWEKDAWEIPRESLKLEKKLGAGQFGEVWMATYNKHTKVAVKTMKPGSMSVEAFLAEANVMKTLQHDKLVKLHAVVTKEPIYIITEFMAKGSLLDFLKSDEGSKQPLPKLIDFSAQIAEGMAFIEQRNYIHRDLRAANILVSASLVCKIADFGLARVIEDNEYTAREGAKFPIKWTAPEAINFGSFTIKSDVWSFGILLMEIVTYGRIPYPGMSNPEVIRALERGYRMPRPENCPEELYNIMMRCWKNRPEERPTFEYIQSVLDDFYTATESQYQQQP

For `O=c1cc(-c2cccc3c2Sc2ccccc2S3)oc(N2CCOCC2)c1`, which residual activity (BRSK2 (human)) is on record?
Its residual activity is 101%.

And the residual activity (PKN2 (human))?
The residual activity was 72.9%.

And the residual activity (HCK (human))?
The residual activity was 102%.

And the residual activity (BLK (human))?
Its residual activity is 96.2%.

What about the residual activity (RPS6KA6 KD1 KD2 (human)) of the same compound?
The residual activity was 98.2%.

And the residual activity (RPS6KA4 KD2 (human))?
Its residual activity is 88.1%.

And the residual activity (WNK2 (human))?
The residual activity was 116%.

And the residual activity (CSK (human))?
Its residual activity is 95.7%.

What about the residual activity (DYRK1A (human)) of the same compound?
The residual activity was 95%.

What about the residual activity (CLK2 (human)) of the same compound?
Its residual activity is 84.7%.

What about the residual activity (MYLK (human)) of the same compound?
The residual activity was 102%.

What about the residual activity (GRK6 (human)) of the same compound?
The residual activity was 83%.

What about the residual activity (SIK2 (human)) of the same compound?
Its residual activity is 113%.

What about the residual activity (NEK4 (human)) of the same compound?
The residual activity was 90%.

And the residual activity (PRKCA (human))?
The residual activity was 80.3%.

And the residual activity (CAMKK2 (human))?
The residual activity was 133%.

What about the residual activity (FGFR3 (human)) of the same compound?
Its residual activity is 94.7%.

And the residual activity (STK39 (human))?
The residual activity was 84%.

What about the residual activity (CSNK2A1 (human)) of the same compound?
The residual activity was 97.4%.

What about the residual activity (DAPK2 (human)) of the same compound?
The residual activity was 98.8%.

And the residual activity (CDK6 CCND3 (human))?
The residual activity was 106%.

What about the residual activity (DDR2 (human)) of the same compound?
The residual activity was 99.2%.

What about the residual activity (FGFR2 (human)) of the same compound?
The residual activity was 98.7%.

What about the residual activity (EPHA3 (human)) of the same compound?
Its residual activity is 119%.

And the residual activity (GSK3A (human))?
The residual activity was 86.7%.

What about the residual activity (MAP3K7 TAB1 (human)) of the same compound?
Its residual activity is 84.5%.

And the residual activity (LTK (human))?
Its residual activity is 94.1%.

And the residual activity (ERBB4 (human))?
Its residual activity is 105%.

What about the residual activity (JAK2 JH1 JH2 (human)) of the same compound?
The residual activity was 105%.

What about the residual activity (PRKX (human)) of the same compound?
Its residual activity is 113%.

And the residual activity (TTK (human))?
The residual activity was 106%.

What about the residual activity (STK16 (human)) of the same compound?
Its residual activity is 95.5%.

And the residual activity (SRPK1 (human))?
Its residual activity is 105%.

What about the residual activity (PLK2 (human)) of the same compound?
Its residual activity is 84.6%.

And the residual activity (MARK2 (human))?
Its residual activity is 86.3%.

What about the residual activity (MLTK (human)) of the same compound?
Its residual activity is 100%.

And the residual activity (ALK (human))?
Its residual activity is 96.2%.

And the residual activity (FGFR1 (human))?
Its residual activity is 99.2%.

And the residual activity (PRKACA (human))?
The residual activity was 99.6%.

What about the residual activity (IRAK1 (human)) of the same compound?
The residual activity was 103%.

What about the residual activity (WNK3 (human)) of the same compound?
The residual activity was 109%.

And the residual activity (ZAP70 (human))?
The residual activity was 97.1%.

Which results are given for `NC(=O)c1ccc(N(C(N)=O)c2c(F)cccc2F)nc1-c1ccc(F)cc1F`?
residual activity (BRSK2 (human)): 96.6%; residual activity (PKN2 (human)): 99.7%; residual activity (HCK (human)): 89.5%; residual activity (BLK (human)): 100%; residual activity (RPS6KA6 KD1 KD2 (human)): 101%; residual activity (RPS6KA4 KD2 (human)): 99%; residual activity (WNK2 (human)): 96.4%; residual activity (CSK (human)): 90%; residual activity (DYRK1A (human)): 98.7%; residual activity (CLK2 (human)): 86.9%; residual activity (MYLK (human)): 101%; residual activity (GRK6 (human)): 97.1%; residual activity (SIK2 (human)): 95.1%; residual activity (NEK4 (human)): 104%; residual activity (PRKCA (human)): 86%; residual activity (CAMKK2 (human)): 101%; residual activity (FGFR3 (human)): 90.2%; residual activity (STK39 (human)): 93.7%; residual activity (CSNK2A1 (human)): 111%; residual activity (DAPK2 (human)): 86.8%; residual activity (CDK6 CCND3 (human)): 119%; residual activity (DDR2 (human)): 100%; residual activity (FGFR2 (human)): 99.5%; residual activity (EPHA3 (human)): 97%; residual activity (GSK3A (human)): 98.6%; residual activity (MAP3K7 TAB1 (human)): 105%; residual activity (LTK (human)): 95%; residual activity (ERBB4 (human)): 98.1%; residual activity (JAK2 JH1 JH2 (human)): 107%; residual activity (PRKX (human)): 123%; residual activity (TTK (human)): 98.8%; residual activity (STK16 (human)): 100%; residual activity (SRPK1 (human)): 99%; residual activity (PLK2 (human)): 102%; residual activity (MARK2 (human)): 131%; residual activity (MLTK (human)): 97.9%; residual activity (ALK (human)): 99.6%; residual activity (FGFR1 (human)): 99%; residual activity (PRKACA (human)): 101%; residual activity (IRAK1 (human)): 94.2%; residual activity (WNK3 (human)): 96.6%; residual activity (ZAP70 (human)): 100%
